One experiment has as its system flank organ hair growth. The experiment is described as follows: Golden Syrian hamster assay (flank organ hair growth, topical). Type of experiment: in vivo. The settings on record: for Hair Mass (mean ± SEM) Treated: treated flank organ; for % Inhibition (of hair growth): vs vehicle-treated side, mean ± SEM. The text has this:
Male intact Golden Syrian hamsters are considered acceptable models for human beard hair growth in that they display oval shaped flank organs, one on each side, each about 8 mm. in major diameter, which grow thick black and coarse hair similar to human beard hair. These organs produce hair in response to androgens in the hamster. To evaluate the effectiveness of a particular PKC inhibitor, the flank organs of each of a group of hamsters are depilated by applying a thioglycolate based chemical depilatory (Surgex). To one organ of each animal 10-25 μl. of vehicle alone once a day is applied, while to the other organ of each animal an equal amount of vehicle containing a PKC inhibitor is applied. After thirteen applications (one application per day for five days a week), the flank organs are shaved and the amount of recovered hair (hair mass) from each is weighed. Percent-reduction of hair growth is calculated by subtracting the hair mass (mg) value of the test compound treated side from the hair mass value of the vehicle treated side; the delta value obtained is then divided by the hair mass value of the vehicle treated side, and the resultant number is multiplied by 100.
The above-described assay will be referred to herein as the "Golden Syrian hamster" assay.

For a further experiment, the system named is PKC. Kind of experiment: PKC activity assay in flank organ hair follicle homogenate (32P phosphorylation of acetylated-myelin basic protein). Type of experiment: biochemical, Golden Syrian hamster. As for the experimental part:
PKC activity was assayed in hair follicles isolated from flank organs using a commercial assay kit obtained from GIBCO BRL (Gaithersburg, Md.). The assay is based on the phosphorylation (incorporation of ^32 -P into) of acetylated-myelin basic protein. After isolation, the flank organ hair follicles were washed in phosphate-buffered saline and homogenized in a buffer containing 20 mM Tris, pH 7.5, 0.5 mM EDTA, 0.5% Triton X-100, 10 mM β-mercaptoethanol, and 25 μg/each of the protease inhibitors aprotinin and leupeptin. The hair follicle homogenate was added to the PKC reaction mixture at a final concentration of 10-20 μg/assay. The assay also included buffer, H2 O, phospholipid. The assay was performed in the presence or absence of select PKC inhibitors. The reaction mixture volume was 50 μl, the ^32 P-ATP substrate was added in a volume of 10 μl. The reaction proceeded at 32° for 15 minutes, whereupon a 16.3 μL aliquot was removed from the reaction mixture and spotted onto a paper filter. Filters were washed twice in 1% phosphoric acid with gentle shaking for 5 minutes. Filters were then washed twice in H2 O and placed in scintillation vials. ^32 P-Incorporation, a measure of the enzyme activity, was determined using standard liquid scintillation techniques.

Where [1] appears, read: dose 7.5% in vehicle B, pH 7.5, thirteen applications.
Where [2] appears, read: dose 10% in vehicle C, pH 5.5, thirteen applications.
Setting [3] is: dose 10% in vehicle A, thirteen applications, pH differs per compound (4.0-8.5).

In the case of `CC1(C)[C@@H](O)CC[C@]2(C)[C@H]3C(=O)C=C4[C@@H]5C[C@@](C)(C(=O)O)CC[C@]5(C)CC[C@@]4(C)[C@]3(C)CC[C@@H]12` [18β-Glycyrrhetinic acid], in the experiment on flank organ hair growth (setting [1]), the “Hair Mass (mean ± SEM) Treated” value is on record as 1.07 ± .10 mg and the “% Inhibition (of hair growth)” value is on record as 44 ± 6%. Further, the “inhibition of PKC activity” value in the experiment with PKC (at 500 μM) is reported as 52%.

On to `COc1cc(/C=C/C(=O)CC(=O)/C=C/c2ccc(O)c(OC)c2)ccc1O` [Curcumin], for which, in the experiment with flank organ hair growth (setting [2]), the “Hair Mass (mean ± SEM) Treated” value was 0.55 ± .11 mg and the “% Inhibition (of hair growth)” value worked out at 68 ± 5%.

As for `CC1(C)[C@@H](O[C@H]2O[C@H](C(=O)O)[C@@H](O)[C@H](O)[C@H]2O[C@@H]2O[C@H](C(=O)O)[C@@H](O)[C@H](O)[C@H]2O)CC[C@]2(C)[C@H]3C(=O)C=C4[C@@H]5C[C@@](C)(C(=O)O)CC[C@]5(C)CC[C@@]4(C)[C@]3(C)CC[C@@H]12` [Glycyrrhetinic acid glycoside], in the experiment on flank organ hair growth (setting [3]), the “Hair Mass (mean ± SEM) Treated” value is 0.94 ± .17 mg and the “% Inhibition (of hair growth)” value is 46 ± 10%. In addition, the “inhibition of PKC activity” value in the experiment with PKC (at 200 μM) is roughly 100%.

Turning to `CC1CNCCN1S(=O)(=O)c1cccc2cnccc12` (stereo not drawn) [H-7, 1(5-isoquinolinylsulfonyl)-2-methylpiperazine], in the experiment on flank organ hair growth (setting [3]), the “Hair Mass (mean ± SEM) Treated” value is 0.81 ± .08 mg and the “% Inhibition (of hair growth)” value was determined as 54 ± 3%. The “inhibition of PKC activity” value in the experiment with PKC (at 200 μM) was 86%.

As to `CN(C)CCCN1c2ccccc2CCc2ccccc21` [Imipramine], in the experiment on flank organ hair growth (setting [3]), the “Hair Mass (mean ± SEM) Treated” value is recorded as 0.94 ± .18 mg and the “% Inhibition (of hair growth)” value was 38 ± 5%.

Take `CCCCCCCCCCCCCCCC(=O)OC[C@H](O)[C@H]1OC(=O)C(O)=C1O` [L-Ascorbic acid 6-palmitate]: in the experiment on flank organ hair growth (setting [3]), the “Hair Mass (mean ± SEM) Treated” value is 1.48 ± .14 mg and the “% Inhibition (of hair growth)” value is 46 ± 5%.

With `Cc1ccc(N(CC2=NCCN2)c2cccc(O)c2)cc1` [Phentolamine], in the experiment with flank organ hair growth (setting [3]), the “Hair Mass (mean ± SEM) Treated” value was 1.61 ± .22 mg and the “% Inhibition (of hair growth)” value was found to be 19 ± 9%.

Take `CSc1ccc2c(c1)N(CCC1CCCCN1C)c1ccccc1S2` (stereo not drawn) [Thioridazine]: in the experiment on flank organ hair growth (setting [3]), the “Hair Mass (mean ± SEM) Treated” value is reported as 0.74 ± .07 mg and the “% Inhibition (of hair growth)” value came out at 68 ± 4%.

Consider `CN1CCN(CCCN2c3ccccc3Sc3ccc(C(F)(F)F)cc32)CC1` [Trifluoperizine], for which, in the experiment with flank organ hair growth (setting [3]), the “Hair Mass (mean ± SEM) Treated” value was 1.03 ± .16 mg and the “% Inhibition (of hair growth)” value worked out at 56 ± 6%. The “inhibition of PKC activity” value with PKC (at 500 μM) worked out at 42%.

As for `COc1ccc(CCN(C)CCCC(C#N)(c2ccc(OC)c(OC)c2)C(C)C)cc1OC` (stereo not drawn) [Verapamil], in the experiment on flank organ hair growth (setting [3]), the “Hair Mass (mean ± SEM) Treated” value is given as 0.43 ± .05 mg and the “% Inhibition (of hair growth)” value is given as 69 ± 5%.
